Test systems include DU-145 prostate; NCI/ADR-RES ovarian; SF-539 CNS; EKVX NSCLC; OVCAR-8 ovarian; CAKI-1 renal; MALME-3M melanoma; HL-60(TB) leukemia; T-47D breast; MOLT-4 leukemia.
Experiment in all cases: NCI anticancer screen, dose series, 48 h

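Step 1: Grow cells in 96-well plates. Step 2: Expose to compound for 48 hours at 5 concentrations. Step 3: Interpolate endpoints linearly; if unreached, use highest concentration. GI50 marks 50% less growth. TGI: total growth inhibition.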

Regarding `CCCCCCCCCCN=C(N)c1ccc(N2CCN(c3ccc(C(N)=NCCCCCCCCCC)cc3)CC2)cc1`, the GI50 with DU-145 prostate was 3300 nM; in the experiment with NCI/ADR-RES ovarian it was above 50000 nM; in the experiment with SF-539 CNS, 1720 nM; with EKVX NSCLC it was 4440 nM; in the experiment with OVCAR-8 ovarian it was 2620 nM; in the experiment on CAKI-1 renal, 17900 nM. Further, the GI50 with MALME-3M melanoma was 6250 nM; in the experiment on HL-60(TB) leukemia, 2170 nM; in the experiment on T-47D breast, 5910 nM; in the experiment on MOLT-4 leukemia, above 50000 nM. The TGI in the experiment with DU-145 prostate is 26100 nM; in the experiment on NCI/ADR-RES ovarian, above 50000 nM; with SF-539 CNS, 6760 nM; in the experiment with EKVX NSCLC it was 21100 nM; in the experiment with OVCAR-8 ovarian, above 50000 nM; with CAKI-1 renal, above 50000 nM. The TGI was 17000 nM in the experiment on MALME-3M melanoma, above 50000 nM in the experiment with HL-60(TB) leukemia, 18800 nM with T-47D breast and above 50000 nM in the experiment with MOLT-4 leukemia.

On to `O=C1NC(c2ccccc2Cl)Nc2ccccc21` (stereo not drawn), for which the TGI in the experiment on DU-145 prostate is above 100000 nM; in the experiment with NCI/ADR-RES ovarian, 27500 nM; in the experiment with SF-539 CNS it was 32600 nM; in the experiment with EKVX NSCLC, above 100000 nM; in the experiment with OVCAR-8 ovarian, above 100000 nM; with CAKI-1 renal, 91800 nM. Further, the TGI in the experiment on MALME-3M melanoma was above 100000 nM; with HL-60(TB) leukemia, 16400 nM; in the experiment with T-47D breast it was above 100000 nM; in the experiment with MOLT-4 leukemia, above 94400 nM.

`CC(C)c1ccc2c(c1)CCC1C2CCCC1(C)NCc1ccccc1` (stereo not drawn): the GI50 in the experiment on DU-145 prostate was 8610 nM; in the experiment on NCI/ADR-RES ovarian it was 5840 nM; in the experiment on SF-539 CNS it was 5500 nM; in the experiment on EKVX NSCLC, 10700 nM; in the experiment with OVCAR-8 ovarian, 13500 nM; in the experiment on CAKI-1 renal, 3220 nM. Further, the GI50 with MALME-3M melanoma is 1920 nM; with HL-60(TB) leukemia it was 2340 nM; in the experiment on T-47D breast, 2220 nM; in the experiment with MOLT-4 leukemia, 3250 nM. Also, the TGI in the experiment on DU-145 prostate was 24300 nM; with NCI/ADR-RES ovarian, 19900 nM; with SF-539 CNS it was 18500 nM; in the experiment with EKVX NSCLC, 24600 nM; with OVCAR-8 ovarian, 28900 nM; with CAKI-1 renal, 15300 nM. For the same molecule, the TGI in the experiment on MALME-3M melanoma amounted to 4180 nM; in the experiment with HL-60(TB) leukemia, 6850 nM; in the experiment on T-47D breast, 4630 nM; with MOLT-4 leukemia it was 12100 nM.

Regarding `CC[C@]12C=CCN3CC[C@@]4(c5ccc(OC)cc5N(C)[C@H]4[C@@](O)(C(=O)OC)[C@@H]1OC(=O)CCCN1CCN(CCCC(=O)O[C@@H]4[C@]5(CC)C=CCN6CC[C@@]7(c8ccc(OC)cc8N(C)[C@H]7[C@@]4(O)C(=O)OC)[C@@H]65)CC1)[C@@H]32`, the GI50 with DU-145 prostate was 701 nM; in the experiment on NCI/ADR-RES ovarian, 1450 nM; in the experiment with SF-539 CNS it was 1380 nM; in the experiment with EKVX NSCLC, 1440 nM; with OVCAR-8 ovarian it was 1550 nM; in the experiment on CAKI-1 renal, 436 nM. For the same molecule, the GI50 is 1600 nM in the experiment with MALME-3M melanoma, 464 nM in the experiment on HL-60(TB) leukemia, 1600 nM in the experiment on T-47D breast and 483 nM in the experiment on MOLT-4 leukemia. For the same molecule, the TGI in the experiment on DU-145 prostate was found to be 1990 nM; in the experiment with NCI/ADR-RES ovarian, 3170 nM; with SF-539 CNS it was 2700 nM; with EKVX NSCLC it was 2970 nM; in the experiment on OVCAR-8 ovarian, 3360 nM; in the experiment on CAKI-1 renal it was 1910 nM. The TGI with MALME-3M melanoma came to 3110 nM; with HL-60(TB) leukemia, 1850 nM; in the experiment with T-47D breast it was 3440 nM; in the experiment on MOLT-4 leukemia it was 1870 nM.

Take `C#CCCCCCC(=O)N[C@H]1C=C[C@@H]2/C=C(C)/C=C/[C@@H](C)[C@H]([C@H](C)[C@H](O)[C@@H](C)NC(C)=O)OC(=O)/C=C/C=C(C)\C=C\[C@]2(C)C1`: the GI50 is 15.7 nM in the experiment with DU-145 prostate; 25.8 nM in the experiment on NCI/ADR-RES ovarian; below 4 nM in the experiment on SF-539 CNS; 21.3 nM in the experiment with EKVX NSCLC; below 4 nM in the experiment on OVCAR-8 ovarian; 567 nM with MALME-3M melanoma. In addition, the GI50 was 33.5 nM with HL-60(TB) leukemia, below 4 nM in the experiment with T-47D breast and 6790 nM in the experiment with MOLT-4 leukemia. The TGI in the experiment on DU-145 prostate was above 40000 nM; with NCI/ADR-RES ovarian, above 40000 nM; with SF-539 CNS, 32300 nM; in the experiment with EKVX NSCLC, above 40000 nM; in the experiment on OVCAR-8 ovarian it was above 40000 nM; in the experiment with MALME-3M melanoma, 17900 nM. The figures for the TGI with HL-60(TB) leukemia, in the experiment with T-47D breast and in the experiment on MOLT-4 leukemia were 9310 nM, 13600 nM and above 40000 nM, respectively.

Turning to `Cc1cccc(Oc2ccc(Nc3ncnc4ccc(NC(=O)CN(C)C)cc34)cc2Cl)c1`, the GI50 in the experiment on DU-145 prostate was 2140 nM; in the experiment on NCI/ADR-RES ovarian, 2830 nM; in the experiment on SF-539 CNS, 1820 nM; with EKVX NSCLC, 512 nM; in the experiment on OVCAR-8 ovarian it was 2720 nM; in the experiment on CAKI-1 renal, 1100 nM. Also, the GI50 is 1720 nM with MALME-3M melanoma, 2070 nM with HL-60(TB) leukemia, 1080 nM in the experiment on T-47D breast and 2370 nM in the experiment with MOLT-4 leukemia. In addition, the TGI in the experiment with DU-145 prostate came out at 10800 nM; with NCI/ADR-RES ovarian, 14200 nM; in the experiment with SF-539 CNS, 3420 nM; in the experiment with EKVX NSCLC, 4190 nM; in the experiment on OVCAR-8 ovarian it was 11300 nM; in the experiment with CAKI-1 renal, 2970 nM. The TGI amounted to 3350 nM in the experiment on MALME-3M melanoma, 4720 nM with HL-60(TB) leukemia, 4590 nM in the experiment with T-47D breast and 6820 nM in the experiment on MOLT-4 leukemia.

Turning to `C/C(=C\c1csc(C)n1)[C@@H]1C[C@@H]2O[C@]2(C)CCC[C@H](C)[C@H](O)[C@@H](C)C(=O)C(C)(C)[C@@H](O)CC(=O)N1`, the GI50 in the experiment with DU-145 prostate is 0.166 nM; in the experiment with NCI/ADR-RES ovarian it was 0.206 nM; in the experiment on SF-539 CNS it was 0.165 nM; with EKVX NSCLC it was 0.337 nM; in the experiment with OVCAR-8 ovarian it was 0.112 nM; with CAKI-1 renal, 13.7 nM. Besides, the GI50 in the experiment on MALME-3M melanoma was 0.376 nM; in the experiment on HL-60(TB) leukemia, 0.083 nM; with T-47D breast, 0.189 nM; with MOLT-4 leukemia, 0.115 nM. The TGI with DU-145 prostate was 0.254 nM; with NCI/ADR-RES ovarian, 0.412 nM; with SF-539 CNS, 0.369 nM; in the experiment with EKVX NSCLC, 0.626 nM; with OVCAR-8 ovarian, 0.184 nM; in the experiment on CAKI-1 renal, 43.4 nM. Further, the TGI worked out at 0.603 nM in the experiment with MALME-3M melanoma, 0.163 nM in the experiment with HL-60(TB) leukemia, 0.469 nM in the experiment with T-47D breast and 0.214 nM in the experiment on MOLT-4 leukemia.

The values above are taken from PubChem BioAssay (NCI).
